Measurements reported in PMC11070402, “New antiproliferative 3-substituted oxindoles inhibiting EGFR/VEGFR-2 and tubulin polymerization” (Molecular Diversity, 2023).

Columns and labels:
[1] = system: NCI/ADR-RES (ovarian cancer cell line); assay: NCI one-dose assay, NCI/ADR-RES; assay type: cell-based; settings: Homo sapiens; NCI/ADR-RES; 10 µM single dose, 48 h incubation; read-out: cell growth inhibition % (GI %)
Protocol: All novel scaffolds 6a–j were carefully selected by the National Cancer Institute (NCI), Bethesda, USA, to elucidate their cytotoxic activity versus 60 human cancer cell lines at 10 µM as a single-dose concentration after a 48 h incubation period.
National Cancer Institution selected all the synthesized 6a–j (NCI), Bethesda, USA, for in vitro one-dose antitumor assay. The methodology protocol for the NCI anticancer screening was reported in detail elsewhere (http://www.dtp.nci.nih.gov). The anticancer assay was performed in full NCI 60 cell lines extracted from nine tumor cell lines, including leukemia, melanoma, lung, colon, CNS, ovarian, renal, prostate, and breast cancer cell lines.

MCF-7 cells = assay: Cell cycle analysis by DNA flow cytometry; assay type: cell-based, human
Protocol: MCF-7 Cells were placed in a six-well plate at 1 × 10^5 concentration of cells/well and then kept for incubation for 24 h. […] Cells were then collected and fixed for 12 h using ice-cold 70% ethanol at 4 °C. Ethanol was then removed, and cells were washed with cold phosphate buffer saline (PBS, 0.5 ml) and preserved for 30 min at 37 °C. The cells were stained for 30 min with propidium iodide in the dark. A flow cytometer was used to detect DNA content.

tubulin = assay: Tubulin polymerization inhibition assay; assay type: biochemical
PDGFR_ẞ = target: T1, PDGFR_ẞ (Homo sapiens, UniProt P09619); assay: PDGFR_ẞ kinase assay kit (Kinase-Glo MAX); assay type: biochemical
T1 construct: purchased
T1 sequence (P09619 33-1106, species assumed): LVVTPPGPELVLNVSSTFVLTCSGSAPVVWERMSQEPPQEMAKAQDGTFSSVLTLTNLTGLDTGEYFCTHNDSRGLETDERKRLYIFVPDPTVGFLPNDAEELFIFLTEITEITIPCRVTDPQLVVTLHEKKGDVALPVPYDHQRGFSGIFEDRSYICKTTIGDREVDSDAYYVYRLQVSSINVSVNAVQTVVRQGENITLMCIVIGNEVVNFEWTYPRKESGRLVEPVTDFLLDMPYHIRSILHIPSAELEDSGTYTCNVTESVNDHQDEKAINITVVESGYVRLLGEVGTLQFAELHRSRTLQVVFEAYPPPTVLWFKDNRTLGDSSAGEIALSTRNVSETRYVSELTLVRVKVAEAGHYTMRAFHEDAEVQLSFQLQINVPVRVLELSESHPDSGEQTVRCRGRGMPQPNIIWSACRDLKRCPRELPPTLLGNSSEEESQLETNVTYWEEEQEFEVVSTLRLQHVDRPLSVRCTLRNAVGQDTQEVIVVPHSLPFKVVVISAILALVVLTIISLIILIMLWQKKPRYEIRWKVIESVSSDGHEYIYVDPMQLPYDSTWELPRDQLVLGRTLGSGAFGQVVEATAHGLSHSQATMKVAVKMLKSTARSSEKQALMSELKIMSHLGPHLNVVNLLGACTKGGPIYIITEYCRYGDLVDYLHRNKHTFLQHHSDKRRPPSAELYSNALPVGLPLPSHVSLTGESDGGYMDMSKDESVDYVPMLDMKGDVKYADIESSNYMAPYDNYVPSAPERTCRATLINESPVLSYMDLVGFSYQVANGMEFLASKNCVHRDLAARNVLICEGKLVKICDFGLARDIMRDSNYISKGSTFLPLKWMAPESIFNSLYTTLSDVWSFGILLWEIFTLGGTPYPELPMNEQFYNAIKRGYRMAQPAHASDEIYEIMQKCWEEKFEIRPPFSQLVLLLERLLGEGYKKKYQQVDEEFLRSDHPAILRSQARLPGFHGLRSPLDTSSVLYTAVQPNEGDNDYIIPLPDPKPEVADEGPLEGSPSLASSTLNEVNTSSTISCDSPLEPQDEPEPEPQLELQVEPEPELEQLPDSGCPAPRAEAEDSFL
Protocol: (§1) The receptor tyrosine kinases, namely EGFR, VEGFR-2, and PDGFR_ẞ Kinases Assay Kits, are designed to measure EGFR, VEGFR-2, and PDGFR_ẞ Kinases’ activities for screening and profiling applications using Kinase-Glo® MAX as a detection reagent. The EGFR, VEGFR-2, and PDGFR_ẞ Kinases Assay Kits come in a convenient 96-well format, with enough purified recombinant EGFR enzyme, EGFR substrate, ATP, and kinase assay buffer for 100 enzyme reactions. The master mixture (25 µl per well) was equipped out of Kinase assay buffer (6 µl), ATP (500 µM, 1 µl), PTK substrate (50x, 1 µl), and water (17 µl) and transferred into each well. […] EGFR, VEGFR-2, and PDGFR_ẞ Kinases were softened on ice. Its tube was spun briefly to recover its full content of the tube. These enzymes were diluted with 1 × Kinase assay buffer to 1 ng/ µl. The reaction was initiated by adding 20 µl of diluted EGFR, VEGFR-2, and PDGFR_ẞ enzymes to the wells designated “Positive Control” and “Test Inhibitor Control.” The plate was incubated at 30 °C for 40 min. After the 40-min reaction, the Kinase-Glo Max (50 µl) reagent was added to each well. The plate was covered with aluminum foil and incubated at room temperature for 15 min, and the luminescence was measured using the microplate reader.

VEGFR-2 (KDR) = target: T2, VEGFR-2 (KDR) (Homo sapiens, UniProt P35968); assay: VEGFR-2 kinase assay kit (Kinase-Glo MAX); assay type: biochemical
T2 construct: purchased
T2 sequence (P35968 20-1356): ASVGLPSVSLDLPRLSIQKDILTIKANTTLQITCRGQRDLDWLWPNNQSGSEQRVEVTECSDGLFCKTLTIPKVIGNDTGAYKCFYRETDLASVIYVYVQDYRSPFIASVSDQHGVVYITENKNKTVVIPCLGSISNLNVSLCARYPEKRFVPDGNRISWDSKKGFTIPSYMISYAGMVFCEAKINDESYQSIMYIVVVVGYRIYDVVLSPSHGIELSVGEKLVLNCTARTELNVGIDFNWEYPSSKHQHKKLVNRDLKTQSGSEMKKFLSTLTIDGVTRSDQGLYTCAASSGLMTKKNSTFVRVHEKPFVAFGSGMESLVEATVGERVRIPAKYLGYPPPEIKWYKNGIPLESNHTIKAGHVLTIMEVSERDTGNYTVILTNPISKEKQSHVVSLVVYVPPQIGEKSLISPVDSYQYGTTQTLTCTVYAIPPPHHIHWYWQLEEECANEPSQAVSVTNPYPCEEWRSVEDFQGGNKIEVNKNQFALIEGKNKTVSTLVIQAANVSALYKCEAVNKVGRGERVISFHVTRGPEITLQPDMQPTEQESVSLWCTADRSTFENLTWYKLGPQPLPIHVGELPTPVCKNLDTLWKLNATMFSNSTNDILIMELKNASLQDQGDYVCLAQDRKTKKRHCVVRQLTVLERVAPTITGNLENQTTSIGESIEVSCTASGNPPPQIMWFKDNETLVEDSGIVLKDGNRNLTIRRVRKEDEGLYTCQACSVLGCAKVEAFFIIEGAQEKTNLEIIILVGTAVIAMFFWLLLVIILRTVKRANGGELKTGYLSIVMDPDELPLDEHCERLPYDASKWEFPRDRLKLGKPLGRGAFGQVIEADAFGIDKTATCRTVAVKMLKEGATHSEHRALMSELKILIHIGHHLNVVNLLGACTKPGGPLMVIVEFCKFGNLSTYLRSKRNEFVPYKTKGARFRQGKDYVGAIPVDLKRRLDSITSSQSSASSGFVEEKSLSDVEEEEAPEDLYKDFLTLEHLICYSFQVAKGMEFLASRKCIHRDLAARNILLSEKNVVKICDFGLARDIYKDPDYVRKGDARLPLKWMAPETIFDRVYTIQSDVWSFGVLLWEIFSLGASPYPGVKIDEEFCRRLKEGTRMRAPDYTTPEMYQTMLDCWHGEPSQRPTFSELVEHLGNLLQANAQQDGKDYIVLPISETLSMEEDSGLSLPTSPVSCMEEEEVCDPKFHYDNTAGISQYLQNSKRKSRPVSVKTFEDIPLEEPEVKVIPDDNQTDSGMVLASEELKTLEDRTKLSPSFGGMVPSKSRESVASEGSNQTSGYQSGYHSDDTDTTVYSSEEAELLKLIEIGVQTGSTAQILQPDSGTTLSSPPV
Protocol: as §1

Structure (SMILES): O=C1Nc2cc(Cl)ccc2C1=Cc1ccc(OCC(=O)c2ccc(Br)cc2)cc1 [Compound 6g, 6-Chloro-3-{4-[2-(4-bromophenyl)-2-oxoethoxy]benzylidene}indolin-2-one]
- inhibition at 10 µM [1]: 52.2%
- melting point: 249 to 251 °C

Structure (SMILES): O=C1Nc2ccccc2C1=Cc1ccc(OCC(=O)c2ccc(Br)cc2)cc1 [Compound 6f, 3-{4-[2-(4-Bromophenyl)-2-oxoethoxy]benzylidene}indolin-2-one]
- cell cycle arrest phase (MCF-7 cells; MCF-7 cells, flow cytometry): G0–G1phase
- Freq G1 (percentage of cells) (MCF-7 cells; MCF-7 treated with IC50 of compound 6f (19.43 μM in method), 24 h, control 40.68): 51.30%
- %inh Tub (tubulin; conc 0.1 (uM printed only in the CA-4 head)): 7%
- %inh Tub (tubulin; conc 1 (uM printed only in the CA-4 head)): 15%
- %inh Tub (tubulin; conc 10 (uM printed only in the CA-4 head)): 56%
- %inh Tub (tubulin; conc 100 (uM printed only in the CA-4 head)): 80%
- IC50 (tubulin; read-out: Tubulin polymerization inhibition (IC50 ± SD)): 7.99 ± 0.49 µM
- %inh PDGFRβ (PDGFR_ẞ; conc 0.01 (unit not given)): 25.63%
- %inh PDGFRβ (PDGFR_ẞ; conc 0.1 (unit not given)): 40.59%
- %inh PDGFRβ (PDGFR_ẞ; conc 1 (unit not given)): 70.36%
- %inh PDGFRβ (PDGFR_ẞ; conc 10 (unit not given)): 88.18%
- IC50 (PDGFR_ẞ; read-out: PDGFR_ẞ inhibition (IC50 ± SD)): 3.18 ± 0.007 µM
- %inh VEGFR-2 (VEGFR-2 (KDR); conc 0.01 (unit not given)): 12.36%
- %inh VEGFR-2 (VEGFR-2 (KDR); conc 0.1 (unit not given)): 36.13%
- %inh VEGFR-2 (VEGFR-2 (KDR); conc 1 (unit not given)): 73.94%
- %inh VEGFR-2 (VEGFR-2 (KDR); conc 10 (unit not given)): 88.74%
- IC50 (VEGFR-2 (KDR); read-out: VEGFR-2 inhibition (IC50 ± SD)): 5.75 ± 0.011 µM
